Data on 4 compounds can be found in patent US20080206287A1, “Use of cyclosporin A to sensitize resistant cancer cells to death receptor ligands” (priority 2006, published 2008).

Test [1] relates to PPC-1 cells. Briefly: PPC-1 cell viability (MTT) with or without CH-11 anti-FAS antibody. In kind it is cell-based. The settings on record: Homo sapiens, PPC-1, read-out: EC50 as a FAS-sensitizer in PPC1 cells. Here is the method: High throughput screening. Screens were performed using a fully integrated, programmable robotic liquid handling system (Biomek® FX, Beckman-Coulter Inc., Fullerton, Calif.), with integrated plate reader (LJL analyst HT 96-384, Sunnyvale, Calif.) and environmentally controlled plate carousel set at 37° C. and 5% CO2:95% air. PPC-1 cells (1×10^4) were seeded overnight into 96 well, flat-bottom plates (Costar, Cambridge, Mass.) in 100 μL of medium containing 2.5% FCS. The next day, aliquots from the 50,000 compound Diversa library were added at a final concentration of 7.5 μg/mL (about 25 μM) in a final concentration of 0.5% (v:v) dimethylsulfoxide (DMSO). CH-11 antibody (100 ng/mL) was then added, and the cells were incubated for 24 hours before assessing cell viability by a 3-(4,5-Dimethylthiazol-2-yl)-2,5-diphenyltetrazolium Bromide (MTT) dye reduction assay (Sigma).
(§1) Cell death assays. Cell viability was measured by MTT and MTS assays, essentially as described in Schimmer et al. (Cancer Cell 5:25-35, 2004). Absorbance readings were plotted against a standard curve to derive the corresponding cell number, and cell viability was expressed as a percentage relative to untreated cells. Apoptosis was measured by flow cytometric analysis of Annexin V surface expression after staining cells with FITC-anti-Annexin V and propidium iodide (PI) (Biovision, Mountain View, Calif.), as described in Pedersen et al. (Blood 100:2965-72, 2002).
Statistics. Cytotoxicity induced by compounds used in combination with conventional agents (e.g., CH-11, TRAIL, VP-16 and staurosporine) was evaluated for evidence of synergy toxicity by comparing the slopes of the dose-response curves. If the combination of the potential sensitizing compound with the conventional agent increased the slope of the dose-response curve compared to the slopes of either the sensitizer or the conventional agent alone, then the interaction was considered synergistic. […] Statistical significance was defined as a p<0.01, using two-sided tests. Synergy was confirmed by performing multiple drug dose-effect calculations using the Median Effect methods as described in Chou (“The Median-Effect Principle and the Combination Index for Quantitation of Synergism and Antagonism.” In: D. C. Rideout and T. C. Chou (eds.), Synergism and Antagonism in Chemotherapy, pp. 61-102: Academic Press, Inc., 1991).
Identification of small molecule FAS sensitizers. Resistance to death receptor ligands may permit malignant cells to escape immune surveillance and limit the clinical efficacy of recombinant death receptor ligands such as TRAIL. To identify small molecules that restore sensitivity to death receptor ligands, a cell-based high throughput screen was performed using the FAS and TRAIL-resistant prostate cancer cell line PPC-1 and a commercially available 50,000 compound library. The screens were performed in 96 well plates, to which compounds were added at 7.5 μg/ml (about 25 μM), followed by agonistic anti-FAS monoclonal antibody CH-11 (100 ng/mL). Cell viability was measured 24 hours later by MTT assay. […] The coefficient of variation (CV) for PPC-1 cells treated with CH-11 alone was determined to be 5%, based on 90 replicate determinations. A 50% decrease in cell viability was used as a cut-off for scoring hits.
From the primary screen of 50,000 compounds, 313 reproducible hits were obtained. To determine whether any of the 313 compounds were toxic molecules as opposed to FAS-sensitizers, the 313 compounds were evaluated in secondary screens where PPC-1 cells were treated with increasing concentrations of the compounds in the presence or absence of CH-11 antibody. Through these secondary screens, nine sensitizers were identified that increased CH-11-mediated killing above the cell death produced by treatment of the cells with the compound alone (Table 1). […]

In test [2] the test system is FLIP. Put plainly: FLIP protein immunoblot. Type of test: cell-based, human. Here is the method: Immunoblot analysis. Protein extracts were obtained by washing cells with phosphate-buffered saline (PBS) [pH 7.4] and suspending the cells in lysis buffer [10 mM Tris (pH 7.4), 150 mM NaCl, 0.1% Triton X-100, 0.5% sodium deoxycholate, and 5 mM EDTA] containing protease inhibitors (Complete tablets; Roche, Indianapolis, Ind.). Immunoblot assays were performed as described in Carter et al. (Blood 105:4043-4050, 2005). Briefly, equal amounts of protein as determined by a Bradford assay (Bradford, Anal. Biochem. 72:248-54, 1976) were subjected to SDS-PAGE (4-20% gradient gels from ISC BioExpress, Kaysville, Utah), followed by transfer to nitrocellulose membranes. Membranes were incubated with mouse monoclonal anti-human FLIP (NF6 clone) (1:500 v/v) (Alexis, San Diego, Calif.), 1:1,000 (v/v) anti-aspase-8 clone 5F7 (Upstate) and mouse monoclonal anti-tubulin (1:2000 v/v) (Sigma Inc). Secondary antibodies consisted of horseradish peroxidase-conjugated goat anti-rabbit IgG or goat anti-mouse IgG (Bio-Rad, Hercules, Calif.). Detection was performed by the enhanced chemiluminescence method (Pierce, Rockford, Ill.).
Effects of sensitizing compounds on FLIP protein. Since FAS-sensitizing compounds 6094911 and 5809354 modulate the extrinsic pathway downstream of TNF-family death receptors but upstream of effector caspases, the effects of those compounds on expression of FLIP, an intracellular antiapoptotic protein that binds caspases-8 and -10 and is capable of suppressing death receptor signaling at a proximal point within the extrinsic pathway, was examined. For these experiments, PPC-1 cells were treated with sensitizing compounds in the presence or absence of CH-11 antibody, then cell lysates were prepared 24 hours later, and analyzed by immunoblotting for FLIP.
The levels of the short isoform of FLIP were less than 5% of total FLIP protein as measured by immunoblotting and quantitative densitometry. Therefore, given the very low levels of the short isoform, the analysis was limited to the effects of the compounds on the long isoform of FLIP.
(In general: Immunoblotting shows a protein as a band on a membrane.)

Test [3] relates to PPC-1 cells. Conditions: positive control, Kim et al. 2002; cited from earlier work.
Test [4] deals with FLIP. The settings on record: Kim et al. 2002; cited from earlier work.
Test [5] has as its system PPC-1 cells. Put plainly: Annexin V apoptosis with CH-11, sensitizers and caspase inhibitors. In kind it is cell-based. Conditions: CH-11 and sensitizers such as 6094911, 5809354, 5569100, 12 hours. How it is done:
as §1
Caspase-dependent induction of apoptosis by combination treatment with CH-11 and FAS-sensitizing compounds. To further assess the mechanism of the 8 compounds that selectively modulated tumor sensitivity to extrinsic pathway stimuli, the effects of […]-Val-Ala-Asp-fluoromethylketone (zVAD-fmk), a broad-spectrum irreversible inhibitor of caspase-family proteases (Enzyme Systems, Dublin, Calif.) was tested. Accordingly, PPC-1 cells were treated with CH-11 and sensitizers such as 6094911, 5809354, and 5569100 with and without zVAD-fmk (100 μM) for 12 hours. Apoptosis was then measured by Annexin V staining.

The test system of test [6] is PPC-1 cells. Put plainly: Extrinsic (CH-11, TRAIL) versus intrinsic (VP-16, STS) pathway stimuli, MTT. In kind it is cell-based. The settings on record: MTT 24 hours. An excerpt:
Identification of small molecules that specifically sensitize to extrinsic pathway. The nine compounds identified using anti-FAS antibody screening theoretically could non-specifically sensitize tumor cells to apoptotic stimuli or they could be selective for the extrinsic pathway. To distinguish between these two possibilities, the effects of compounds on apoptosis induced by extrinsic pathway stimuli (e.g., CH-11 antibody; TRAIL) were compared to the effects on the intrinsic pathway stimuli (e.g., etoposide [VP16]; staurosporine [STS]). Accordingly, PPC-1 cells were treated with various concentrations of compounds with or without CH-11, TRAIL, VP-16, or STS, and 24 hours later, cell viability was measured by MTT assays.

The EC50 is the midpoint of the concentration-response curve.

“Also recorded” adds a separate entry of the source. Residues, ends and D or L forms follow the SMILES beside them. *: point of attachment. Cbz = O=C(OCc1ccccc1)*; CH2F = FC*

Consider `Cn1c(=N)n(CC(=O)c2cc(C(C)(C)C)c(O)c(C(C)(C)C)c2)c2ccccc21` [compound 5541203, 1-(3,5-Di-tert-butyl-4-hydroxy-phenyl)-2-(2-imino-3-methyl-2,3-dihydro-benzoimidazol-1-yl)-ethanone], for which, in the test with PPC-1 cells [1], the EC50 came out at 25.7 µM. Besides, the “levels of FLIP protein (long isoform)” value in the test on FLIP [2] (PPC-1 cells, with or without CH-11, 24 hours, immunoblot) is “had little effect”.

For `CC1(C)CC[C@]2(C(=O)O)CC[C@]3(C)[C@H](C(=O)C=C4[C@@]5(C)C=C(C#N)C(=O)C(C)(C)[C@@H]5CC[C@]43C)[C@@H]2C1` [CDDO, 2-cyano-3,12-dioxooleana-1,9-dien-28-oic acid], in the test with PPC-1 cells [3], the “sensitization of PPC-1 cells to TNF-family death receptors and ligands” value was “sensitize PPC-1 cells to TNF-family death receptors and ligands”. In the test on FLIP [4], the FLIP protein levels entry was “reduce FLIP protein levels; also recorded: reduces FLIP expression”.

Regarding `COC(=O)C[C@H](NC(=O)[C@H](C)NC(=O)[C@@H](NC(=O)OCc1ccccc1)C(C)C)C(=O)CF` [zVAD-fmk, reference compound] (Cbz-Val-Ala-Asp(OMe)-CH2F), the “effect of caspase inhibitor pre-treatment on reductions in FLIP protein” value in the test with FLIP [2] (pre-treatment before 5809354 or 5569100) is “did not prevent reductions in FLIP protein”. In the test with PPC-1 cells [5], the “effect of caspase inhibitor on apoptosis by CH-11 plus sensitizers” value is “blocked sensitization to CH-11”.

`C[n+]1ccn2c3c(c4cc(C5CCCCC5)ccc42)CCCc31.[I-]` [compound 5362611, 8-Cyclohexyl-3-methyl-5,6-dihydro-4H-pyrazino[3,2,1-jk]carbazol-3-ium; iodide]: in the test on PPC-1 cells [6], the “sensitization to extrinsic (CH-11, TRAIL) and intrinsic (VP-16, STS) pathway stimuli” value is “sensitized to both the death receptor (extrinsic) and mitochondrial pathway (intrinsic) stimuli”.
